Type in all cases: functional
One assay has as its system Enterococcus faecium. Briefly: Antibacterial activity against Vanomycin-resistant Enterococcus faecium assessed as bacterial growth inhibition by CLSI protocol agar-based assay.
The subject of a further assay is Escherichia coli. Nature of the assay: Antibacterial activity against Escherichia coli ATCC 25922 assessed as bacterial growth inhibition by CLSI protocol agar-based assay.
The subject of the next assay is Streptococcus pneumoniae. Nature of the assay: Antibacterial activity against Streptococcus pneumoniae IID553 assessed as bacterial growth inhibition by CLSI protocol agar-based assay.
The next assay has as its system Acinetobacter baumannii. Nature of the assay: Antibacterial activity against Acinetobacter baumannii IID876 assessed as bacterial growth inhibition by CLSI protocol agar-based assay.
The next assay concerns Staphylococcus aureus. Nature of the assay: Antibacterial activity against methicillin-resistant Staphylococcus aureus OITII-971 assessed as bacterial growth inhibition by CLSI protocol agar-based assay.
The test system of the next assay is Pseudomonas aeruginosa. Briefly: Antibacterial activity against Pseudomonas aeruginosa PAO1 assessed as bacterial growth inhibition by CLSI protocol agar-based assay.

What is called MIC is the smallest concentration in the dilution series that meets the test's criterion for growth inhibition.

SMILES strings stand for the structures. ≈ marks a conversion by molar mass, not a printed value.

As to `C[C@H]1CCc2cc(CNC34CCC(CCc5c(F)cnc6ccc(=O)n(CCO)c56)(CC3)OC4)ncc2O1`, the minimal inhibitory concentration (MIC) in the assay with Enterococcus faecium is 32 µg/mL (≈ 61.2 µM); in the assay on Escherichia coli, 64 µg/mL (≈ 122 µM); in the assay on Streptococcus pneumoniae, 2 µg/mL (≈ 3.83 µM); in the assay with Acinetobacter baumannii, 16 µg/mL (≈ 30.6 µM); in the assay with Staphylococcus aureus, 1 µg/mL (≈ 1.91 µM); in the assay with Pseudomonas aeruginosa it was greater than 64 µg/mL.
As to `O=c1ccc2ncc(F)c(CCC34CCC(NCc5cnc(C6CCCCC6)s5)(CC3)CO4)c2n1CCO`, the MIC in the assay on Enterococcus faecium is greater than 32 µg/mL; in the assay on Escherichia coli, greater than 32 µg/mL; in the assay with Streptococcus pneumoniae, greater than 32 µg/mL; in the assay on Acinetobacter baumannii, greater than 32 µg/mL; with Staphylococcus aureus, greater than 32 µg/mL; in the assay on Pseudomonas aeruginosa, greater than 16 µg/mL.
Regarding `O=C(NC12CCC(CCc3c(F)cnc4ccc(=O)n(CCO)c34)(CC1)OC2)c1cc2c(cn1)OCCC2`, the MIC was 16 µg/mL (≈ 30.6 µM) in the assay on Enterococcus faecium; greater than 32 µg/mL with Escherichia coli; 1 µg/mL (≈ 1.91 µM) in the assay on Streptococcus pneumoniae; 8 µg/mL (≈ 15.3 µM) in the assay with Acinetobacter baumannii; 0.5 µg/mL (≈ 0.957 µM) in the assay on Staphylococcus aureus; greater than 32 µg/mL in the assay on Pseudomonas aeruginosa.
Take `O=C1COc2ccc(C(=O)NC34CCC(CCc5c(F)cnc6ccc(=O)n(CCO)c56)(CC3)OC4)nc2N1`: the MIC with Enterococcus faecium came to 4 µg/mL (≈ 7.44 µM); with Escherichia coli it was 16 µg/mL (≈ 29.8 µM); in the assay with Streptococcus pneumoniae, 1 µg/mL (≈ 1.86 µM); with Acinetobacter baumannii it was 4 µg/mL (≈ 7.44 µM); in the assay on Staphylococcus aureus, 0.125 µg/mL (≈ 0.233 µM); in the assay with Pseudomonas aeruginosa, 32 µg/mL (≈ 59.5 µM).
For `CN(C)C(=O)Cn1c(=O)ccc2ncc(F)c(CCC34CCC(NCc5ccc6c(n5)NC(=O)CO6)(CC3)CO4)c21`, the minimal inhibitory concentration (MIC) was 32 µg/mL (≈ 56.7 µM) in the assay with Enterococcus faecium; 32 µg/mL (≈ 56.7 µM) with Escherichia coli; 4 µg/mL (≈ 7.08 µM) in the assay on Streptococcus pneumoniae; 8 µg/mL (≈ 14.2 µM) in the assay on Acinetobacter baumannii; 1 µg/mL (≈ 1.77 µM) in the assay on Staphylococcus aureus; 64 µg/mL (≈ 113 µM) in the assay on Pseudomonas aeruginosa.
On to `CN(C)CCn1c(=O)ccc2ncc(F)c(CCC34CCC(NCc5ccc6c(n5)NC(=O)CO6)(CC3)CO4)c21`, for which the MIC came out at 16 µg/mL (≈ 29.1 µM) in the assay with Enterococcus faecium; 1 µg/mL (≈ 1.82 µM) in the assay with Escherichia coli; 1 µg/mL (≈ 1.82 µM) with Streptococcus pneumoniae; 0.5 µg/mL (≈ 0.908 µM) in the assay with Acinetobacter baumannii; 0.5 µg/mL (≈ 0.908 µM) with Staphylococcus aureus; 8 µg/mL (≈ 14.5 µM) with Pseudomonas aeruginosa.
Regarding `O=c1ccc2ncc(F)c(CCC34CCC(NCc5cc(-c6cccs6)on5)(CC3)CO4)c2n1CCO`, the MIC was 64 µg/mL (≈ 122 µM) with Enterococcus faecium; greater than 128 µg/mL with Escherichia coli; 4 µg/mL (≈ 7.62 µM) with Streptococcus pneumoniae; 128 µg/mL (≈ 244 µM) in the assay with Acinetobacter baumannii; 4 µg/mL (≈ 7.62 µM) in the assay with Staphylococcus aureus; greater than 64 µg/mL in the assay on Pseudomonas aeruginosa.
As for `Cn1cc(-c2ncc(CNC34CCC(CCc5c(F)cnc6ccc(=O)n(CCO)c56)(CC3)OC4)s2)cn1`, the MIC was greater than 32 µg/mL with Enterococcus faecium; greater than 32 µg/mL in the assay with Escherichia coli; 8 µg/mL (≈ 14.9 µM) in the assay with Streptococcus pneumoniae; greater than 32 µg/mL with Acinetobacter baumannii; 2 µg/mL (≈ 3.71 µM) in the assay on Staphylococcus aureus; greater than 32 µg/mL in the assay with Pseudomonas aeruginosa.
For the compound `C[C@@H]1CCc2cc(CNC34CCC(CCc5c(F)cnc6ccc(=O)n(CCO)c56)(CC3)OC4)ncc2O1`, the MIC was 32 µg/mL (≈ 61.2 µM) in the assay on Enterococcus faecium; greater than 64 µg/mL in the assay on Escherichia coli; 1 µg/mL (≈ 1.91 µM) in the assay on Streptococcus pneumoniae; 64 µg/mL (≈ 122 µM) in the assay with Acinetobacter baumannii; 1 µg/mL (≈ 1.91 µM) with Staphylococcus aureus; greater than 64 µg/mL in the assay on Pseudomonas aeruginosa.
Take `CC(C)(O)Cn1c(=O)ccc2ncc(F)c(CCC34CCC(NCc5ccc6c(n5)NC(=O)CO6)(CC3)CO4)c21`: the MIC with Enterococcus faecium was greater than 64 µg/mL; in the assay with Escherichia coli, greater than 64 µg/mL; in the assay with Streptococcus pneumoniae, 64 µg/mL (≈ 116 µM); in the assay on Acinetobacter baumannii it was 64 µg/mL (≈ 116 µM); in the assay on Staphylococcus aureus, 8 µg/mL (≈ 14.5 µM); in the assay with Pseudomonas aeruginosa it was greater than 64 µg/mL.
Consider `O=c1ccc2ncc(F)c(C[C@H](O)C34CCC(NC/C=C/c5cc(F)ccc5F)(CC3)CO4)c2n1CCO`, for which the MIC in the assay with Enterococcus faecium amounted to 16 µg/mL (≈ 30.2 µM); in the assay with Escherichia coli, 16 µg/mL (≈ 30.2 µM); in the assay on Streptococcus pneumoniae it was 0.5 µg/mL (≈ 0.944 µM); in the assay with Acinetobacter baumannii it was 1 µg/mL (≈ 1.89 µM); in the assay with Staphylococcus aureus, 0.5 µg/mL (≈ 0.944 µM); in the assay on Pseudomonas aeruginosa, 64 µg/mL (≈ 121 µM).
Regarding `O=c1ccc2ncc(F)c(CCC34CCC(NC[C@@H]5C[C@H]5c5cc(F)ccc5F)(CC3)CO4)c2n1CCO`, the MIC was 16 µg/mL (≈ 30.3 µM) with Enterococcus faecium; 64 µg/mL (≈ 121 µM) in the assay on Escherichia coli; 1 µg/mL (≈ 1.9 µM) with Streptococcus pneumoniae; 32 µg/mL (≈ 60.7 µM) in the assay with Acinetobacter baumannii; 0.5 µg/mL (≈ 0.948 µM) with Staphylococcus aureus; greater than 64 µg/mL in the assay on Pseudomonas aeruginosa.
Regarding `NCCn1c(=O)ccc2ncc(F)c(CCC34CCC(NCc5ccc6c(n5)NC(=O)CO6)(CC3)CO4)c21`, the MIC in the assay on Enterococcus faecium came out at 8 µg/mL (≈ 15.3 µM); in the assay on Escherichia coli, 1 µg/mL (≈ 1.91 µM); in the assay on Streptococcus pneumoniae, 1 µg/mL (≈ 1.91 µM); in the assay on Acinetobacter baumannii, 16 µg/mL (≈ 30.6 µM); in the assay with Staphylococcus aureus, 1 µg/mL (≈ 1.91 µM); in the assay on Pseudomonas aeruginosa, 2 µg/mL (≈ 3.83 µM).
With `O=C(NC12CCC(CCc3c(F)cnc4ccc(=O)n(CCO)c34)(CC1)OC2)c1cc2c(cn1)OCCO2`, the MIC is 16 µg/mL (≈ 30.5 µM) in the assay on Enterococcus faecium; greater than 32 µg/mL with Escherichia coli; 2 µg/mL (≈ 3.81 µM) in the assay with Streptococcus pneumoniae; 32 µg/mL (≈ 61 µM) in the assay on Acinetobacter baumannii; 1 µg/mL (≈ 1.91 µM) in the assay with Staphylococcus aureus; greater than 32 µg/mL in the assay on Pseudomonas aeruginosa.
As to `O=c1ccc2ncc(F)c(CCC34CCC(NCc5cnc(-c6ncccn6)s5)(CC3)CO4)c2n1CCO`, the MIC in the assay with Enterococcus faecium is greater than 16 µg/mL; in the assay with Escherichia coli, greater than 16 µg/mL; in the assay with Streptococcus pneumoniae, 4 µg/mL (≈ 7.45 µM); with Acinetobacter baumannii, greater than 16 µg/mL; in the assay on Staphylococcus aureus, 1 µg/mL (≈ 1.86 µM); with Pseudomonas aeruginosa, greater than 32 µg/mL.
Regarding `O=C1COc2ccc(CNC34CCC(CCc5c(F)cnc6ccc(=O)n(CCN7CCOCC7)c56)(CC3)OC4)nc2N1`, the MIC was 16 µg/mL (≈ 27 µM) in the assay with Enterococcus faecium; greater than 16 µg/mL in the assay with Escherichia coli; 2 µg/mL (≈ 3.37 µM) in the assay on Streptococcus pneumoniae; 8 µg/mL (≈ 13.5 µM) in the assay on Acinetobacter baumannii; 1 µg/mL (≈ 1.69 µM) with Staphylococcus aureus; greater than 16 µg/mL in the assay on Pseudomonas aeruginosa.
